Columns and labels:
SW48 cells = experiment: Proliferation assay SW48 (CellTiterGlo, 96 hours); format: cell-based; details: Homo sapiens
Description: (§1) The colon carcinoma cell lines SW48 (RRID: CVCL_1724), HCT 116 (RRID: CVCL_0291) and SNU-407 (RRID: CVCL_5058) were obtained from ATCC. The WRN-knockdown insensitive colon carcinoma cell line DLD-1 (RRID: CVCL_0248) was obtained from the Korean Cell Line Bank (KCLB), and used to generate a derivative in which the endogenous WRN gene copies were knocked out by CRISPR-mediated editing using standard CRISPR methods. The resulting cell line, DLD1-WRN-KO, was used to assess potential off-target compound effects.
(§2) SW48, SNU-407 and DLD1-WRN-KO cells were cultured in growth medium composed of RPMI-1640 (Amimed Cat #1-41F22-1), 2 mM L-Glutamine (Amimed Cat #5-10K50), 10 mM HEPES (Gibco Cat #15630-056), 1 mM sodium pyruvate (Amimed Cat #5-60F00-H), 1× Penicillin-Streptomycin (Amimed Cat #4-01F00-H) and 10% fetal calf serum (Amimed Cat #2-01F30-G, Lot #LB11566P). HCT 116 cells were cultured in growth medium composed of McCoys 5A (Amimed catalog #1-18F01-1), 2 mM L-Glutamine (Amimed Cat #5-10K50), 1× Penicillin-Streptomycin (Amimed Cat #4-01F00-H) and 10% fetal calf serum (Amimed Cat #2-01F30-G, Lot #LB11566P). All cells were maintained at 37° C. in a humidified 5% CO2 incubator.
(§3) Following filtration through a Steriflip-NY 20 μm filter (Millipore Cat #SCNY00020), trypsinized cells were seeded in 100 microliters growth medium at 2′000 (SW48) or 1′500 (SNU-407, DLD1-WRN-KO, HCT 116) cells/well into white, clear-bottom 96-well plates (Costar Cat #3903). Three replicate plates were prepared for each compound treatment condition. In addition, one plate (termed “day 0”) was prepared to quantify the number of viable cells at the time of compound addition. Following overnight incubation at 37° C. in a humidified 5% CO2 atmosphere, eight 3-fold serial dilutions of a given compound stock (obtained at a concentration of 10 mM in DMSO and stored at 4° C.) were dispensed directly into each of the triplicate assay plates using a HP 300D non-contact Digital Dispenser (TECAN). The final concentration of DMSO was normalized to 0.1% in all wells. 96 hours after compound addition, cellular ATP levels as a surrogate for cell viability was assessed following addition of 50 microliters CellTiterGlo (Promega Cat #G7573) reagent and luminescence quantification on a MPLEX multi-mode plate-reader (TECAN) following a 10 minute incubation at room temperature. The number of viable cells in the “day 0” plate were quantified identically on the day of compound addition.
(§4) For data analysis, the assay background signal that was determined in wells containing medium, but no cells, was subtracted from all other data points prior to further calculations. The extent of growth inhibition and potential cell kill was assessed by comparing the ATP levels (measured using CellTiterGlo, Promega) in compound-treated cells with those present at the time of compound addition. To this end, the following conditional concept was programmatically applied in HELIOS, an in-house software applying a multi-step decision tree to arrive at optimal concentration response curve fits (Gubler et al, SLAS DOI: 10.1177/2472555217752140) to calculate % growth (% G) for each compound-treated well: % G=(T−V0)/V0))*100 when T<V0, and % G=(T−V0)/(V−V0)))*100 when T>V0, where V0 is the viability level at time of compound addition, while V and T represent vehicle-control and compound-treated viability levels, respectively, at the end of the compound incubation. 100%, 0% and −100% signify absence of growth inhibition, growth stasis, and complete cell kill, respectively. Compound concentrations leading to half-maximal growth inhibition (G150) and residual cell viability at the highest tested compound concentration (Data (cmax), expressed in percent) were routinely calculated. Data analysis can also be carried out using commercially available software designed to derive IC50 values using 4-parameter fits (e.g. GraphPad Prism, XL fit). […]

[1] = biological target: WRN helicase (core helicase motif aa N517-P1238) (Homo sapiens (Human), UniProt Q14191); experiment: WRN ATPase assay (ADP-Glo), DNA dependent ATP hydrolysis; format: biochemical; details: 3 hours pre-incubation, 300 micromolar ATP, FLAP26 ssDNA; geometric means of at least 2 determinations
Chain of WRN helicase (core helicase motif aa N517-P1238) (Q14191 517-1238): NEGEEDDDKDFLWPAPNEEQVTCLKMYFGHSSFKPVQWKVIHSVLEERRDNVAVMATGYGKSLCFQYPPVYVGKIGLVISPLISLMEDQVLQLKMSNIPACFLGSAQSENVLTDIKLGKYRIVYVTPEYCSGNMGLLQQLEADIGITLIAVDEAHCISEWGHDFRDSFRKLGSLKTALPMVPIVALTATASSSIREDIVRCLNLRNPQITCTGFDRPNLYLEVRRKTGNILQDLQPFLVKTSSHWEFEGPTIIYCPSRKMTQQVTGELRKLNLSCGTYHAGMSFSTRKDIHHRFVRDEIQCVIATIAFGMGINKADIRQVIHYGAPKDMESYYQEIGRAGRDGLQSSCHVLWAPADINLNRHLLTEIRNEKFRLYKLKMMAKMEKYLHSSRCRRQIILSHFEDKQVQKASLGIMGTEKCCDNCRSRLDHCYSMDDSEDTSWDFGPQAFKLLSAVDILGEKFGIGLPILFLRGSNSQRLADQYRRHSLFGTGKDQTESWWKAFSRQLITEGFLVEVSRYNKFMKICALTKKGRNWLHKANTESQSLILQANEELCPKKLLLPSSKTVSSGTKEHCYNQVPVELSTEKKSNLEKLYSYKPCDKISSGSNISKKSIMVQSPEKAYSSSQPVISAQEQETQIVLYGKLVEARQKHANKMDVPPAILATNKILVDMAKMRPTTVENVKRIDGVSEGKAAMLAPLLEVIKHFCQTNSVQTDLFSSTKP
Description: An ATPase assay was set up to measure the DNA dependent ATP hydrolysis activity of WRN helicase. This assay was used also to assess the inhibition properties of compounds of the invention on DNA dependent WRN ATPase activity.
The core helicase motif of the WRN protein (aa N517-P1238) was produced for this assay (protein production as described above). A 45 oligonucleotide sequence called “FLAP26” as described by Brosh et al., 2009, DOI: 10.1074/jbc.M111446200 ([…]; SEQ ID NO: 2) was purchased from IDT (Integrated DNA Technologies, Leuven, Belgium) and used as single strand DNA substrate. The ADP-Glo assay kit (Promega, Madison, WI) allowing the quantification of ADP produced in ATP hydrolysis reactions was used for setting up this assay. Time course experiments were first performed in order to determine the best enzymatic assay conditions (including buffer conditions, reaction time and concentrations of protein, ATP and DNA substrates). A typical reaction consists of 10 nM WRN protein, 0.2 nM FLAP26, and 300 micromolar ATP in the following assay buffer: 30 mM Tris pH7.5, 2 mM MgCl2, 0.02% BSA, 50 mM NaCl, 0.1% pluronic F127 prepared in DNAse free water.
To evaluate the inhibition properties of compounds of the invention, serial dilutions were prepared in DMSO (10 half log dilutions from a 10 mM DMSO solution). 50 nanoliters of each concentration was pre-incubated for 3 hours in a 384 small volume assay plate (Greiner #784075) with 2.5 microliters of a 20 nM WRN helicase protein in assay buffer with 600 micromolar ATP. Control wells were included with a “high control” (no inhibition), containing DMSO with no test compound, and “low controls” (maximal inhibition), containing buffer without protein. The reaction was started by addition of 2.5 microliters of FLAP26 at 0.4 nM and incubated for 30 minutes at room temperature. The reaction was stopped with the addition of 5 microliters of the first ADP-Glo reagent and incubated for one hour to remove the excess amount of ATP. Afterwards, 10 microliters of ATP detection reagent was added and incubated for an additional hour before reading. Luminescence output was recorded using Tecan 1000 reader, with 5 minutes delay before reading. Each concentration of compound was tested in duplicates in the assay plate.
Data analysis was carried out using an in-house developed software (Novartis Helios software application, Novartis Institutes for BioMedical Research, unpublished) using the methods described by Formenko et al., 2006, DOI: 10.1016/j.cmpb.2006.01.008. Following normalization of activity values for the wells to % inhibition (% inhibition=[(high control-sample)/(high control-low control)]×100), IC50 fitting was carried out from the duplicate determinations present on each plate according to [4]. Data analysis can also be carried out using commercially available software designed to derive IC50 values using 4-parameter fits (e.g. GraphPad Prism, XL fit). The reported IC50 values are the geometrical means of at least 2 independent replicates.

DLD1-WRN-KO cells = experiment: Proliferation assay DLD1-WRN-KO (CellTiterGlo, 96 hours), off-target effects; format: cell-based; details: Homo sapiens
Description: as §1, §2, §3, §4

Compound | GI50 (SW48 cells) | IC50 [1] | GI50 (DLD1-WRN-KO cells)
Cc1ncnc(C(=O)N2CCN(c3c4n(c5nc(N6CCOCC6)nn5c3=O)[C@H](C(=O)Nc3ccc(C(F)(F)F)cc3Cl)C[C@@H]4C)CC2)c1O [Example 2B, (7S,9S)—N-(2-chloro-4-(trifluoromethyl)phenyl)-6-(4-(5-hydroxy-6-methylpyrimidine-4-carbonyl)piperazin-1-yl)-7-methyl-2-morpholino-5-oxo-5,7,8,9-tetrahydropyrrolo[1,2-c][1,2,4]triazolo[1,5-a]pyrimidine-9-carboxamide] | > 10 µM | 26 µM | > 10 µM
Cc1ncnc(C(=O)N2CCN(c3c4n(c5nc(N6CCOCC6)nn5c3=O)[C@@H](C(=O)Nc3ccc(C(F)(F)F)cc3Cl)C[C@@H]4C)CC2)c1O [Example 2C, (7S,9R)—N-(2-chloro-4-(trifluoromethyl)phenyl)-6-(4-(5-hydroxy-6-methylpyrimidine-4-carbonyl)piperazin-1-yl)-7-methyl-2-morpholino-5-oxo-5,7,8,9-tetrahydropyrrolo[1,2-c][1,2,4]triazolo[1,5-a]pyrimidine-9-carboxamide] | 1 µM | 0.1 µM | > 10 µM
Cc1ncnc(C(=O)N2CCN(c3c4n(c5nc(N6CCOCC6)nn5c3=O)[C@H](C(=O)Nc3ccc(C(F)(F)F)cc3Cl)C[C@H]4C)CC2)c1O [Example 2D, (7R,9S)—N-(2-chloro-4-(trifluoromethyl)phenyl)-6-(4-(5-hydroxy-6-methylpyrimidine-4-carbonyl)piperazin-1-yl)-7-methyl-2-morpholino-5-oxo-5,7,8,9-tetrahydropyrrolo[1,2-c][1,2,4]triazolo[1,5-a]pyrimidine-9-carboxamide] | > 10 µM | 24 µM | > 10 µM
Cc1cc(F)c(O)c(C(=O)N2CCN(c3c4n(c5nc(N6CCOCC6)nn5c3=O)[C@@H](C(=O)Nc3ccc(C(F)(F)F)cc3Cl)C[C@H]4C)CC2)n1 [Example 3A, (7R,9R)—N-(2-chloro-4-(trifluoromethyl)phenyl)-6-(4-(4-fluoro-3-hydroxy-6-methylpicolinoyl)piperazin-1-yl)-7-methyl-2-morpholino-5-oxo-5,7,8,9-tetrahydropyrrolo[1,2-c][1,2,4]triazolo[1,5-a]pyrimidine-9-carboxamide] | 0.04 µM | 0.03 µM | > 10 µM
Cc1cc(F)c(O)c(C(=O)N2CCN(c3c4n(c5nc(N6CCOCC6)nn5c3=O)[C@H](C(=O)Nc3ccc(C(F)(F)F)cc3Cl)C[C@@H]4C)CC2)n1 [Example 3B, (7S,9S)—N-(2-chloro-4-(trifluoromethyl)phenyl)-6-(4-(4-fluoro-3-hydroxy-6-methylpicolinoyl)piperazin-1-yl)-7-methyl-2-morpholino-5-oxo-5,7,8,9-tetrahydropyrrolo[1,2-c][1,2,4]triazolo[1,5-a]pyrimidine-9-carboxamide] | > 10 µM | 6 µM | > 10 µM
Cc1ncnc(C(=O)N2CCN(c3c4n(c5nc(C6=CCOCC6)nn5c3=O)[C@@H](C(=O)Nc3ccc(C(F)(F)F)nc3Cl)C[C@H]4C)CC2)c1O [Example 4A, (7R,9R)—N-(2-chloro-6-(trifluoromethyl)pyridin-3-yl)-2-(3,6-dihydro-2H-pyran-4-yl)-6-(4-(5-hydroxy-6-methylpyrimidine-4-carbonyl)piperazin-1-yl)-7-methyl-5-oxo-5,7,8,9-tetrahydropyrrolo[1,2-c][1,2,4]triazolo[1,5-a]pyrimidine-9-carboxamide] | 0.1 µM | 0.09 µM | > 10 µM
Cc1ncnc(C(=O)N2CCN(c3c4n(c5nc(C6=CCOCC6)nn5c3=O)[C@H](C(=O)Nc3ccc(C(F)(F)F)nc3Cl)C[C@@H]4C)CC2)c1O [Example 4B, (7S,9S)—N-(2-chloro-6-(trifluoromethyl)pyridin-3-yl)-2-(3,6-dihydro-2H-pyran-4-yl)-6-(4-(5-hydroxy-6-methylpyrimidine-4-carbonyl)piperazin-1-yl)-7-methyl-5-oxo-5,7,8,9-tetrahydropyrrolo[1,2-c][1,2,4]triazolo[1,5-a]pyrimidine-9-carboxamide] | 6 µM | 9 µM | > 10 µM

Source: US20240245694A1, “Tricyclic Compounds and their Uses” (Novartis AG, priority 2022, published 2024)
